Earlier results in patent US20190381003A1, “PHARMACEUTICAL COMPOSITION FOR TREATMENT OF INFLAMMATORY EAR DISEASES, METHOD FOR PRODUCING SAME AND METHOD FOR TREATMENT USING SAME COMPOSITION” (LIMITED LIABILITY COMPANY "KONSORTSIUM-PIK", priority 2017, published 2019).

How the values were obtained:
[1] = following oral administration

time to maximal blood level [1] | SMILES | persistence of anaesthesia (following drug administration) | analgesic effects, potency vs. lidocaine (vs. lidocaine) | analgesic effects, potency vs. procaine (vs. procaine)
 | CCCNC(C)C(=O)Nc1c(C)csc1C(=O)OC (racemic) [Articaine, (RS)-Methyl 4-methyl-3-(2-propylaminopropanoylamino)thiophene-2-carboxylate] | 1 to 5 h | 2 fold | 6 fold
≤ 30 min | Cc1c(C(C)C)c(=O)n(-c2ccccc2)n1C [Propyphenazone, 1,5-Dimethyl-2-phenyl-4-propan-2-yl-pyrazol-3-one] |  |  | 
